{"source": "patent US10780067B2", "about": "“Endoxifen for local transdermal therapy to the breast” (Northwestern University, priority 2016, dated 2020)", "key": {"IGF-1": {"test_system": "IGF-1", "experiment": "Plasma IGF-1 ELISA, presurgical trial", "assay_type": "in vivo, human", "settings": "mean ± SD", "protocol": "(§1) Plasma samples collected with anticoagulant K3-EDTA were used for human IGF-1 and SHBG assays, and coagulation protein assays (factor VIII, factor IX, von Willebrand factor, and protein S)[23]. The human IGF-1 and SHBG assays were performed with Quantikine Enzyme-linked immunosorbent assay (ELISA) Kits (R&D Systems, Cat # DG100 for IGF-1, and Cat # DSHBGO for SHBG assay). The lower limit of detection was 56 pg/ml, and 5 pmol/L; % CV values were 4.3 and 5.6 for IGF-1, and SHBG assay, respectively. Factor VIII, and factor IX were determined with VisuLize™ antigen ELISA kits (Affinity Biologicals Inc.). von Willebrand factor was measured with immune-turbidimetric assay (Diagnostica Stago Inc. Cat #00518) by STAR analyzer, and total protein S was assayed with an ELISA kit (REAADSR Inc.)"}, "factor IX": {"test_system": "factor IX", "experiment": "Plasma factor IX antigen ELISA, presurgical trial", "assay_type": "in vivo, human", "settings": "mean ± SD", "protocol": "as §1"}}, "data": [{"compound": "CC/C(=C(\\c1ccccc1)c1ccc(OCCN(C)C)cc1)c1ccccc1", "note": "[Tamoxifen, (Z)-tamoxifen]", "values": [{"measurement": "IGF-1 post-treatment", "setting": "IGF-1; plasma after 6-10 weeks", "result": "50.3 ± 9.7", "unit": "ng/mL"}, {"measurement": "IGF-1 baseline", "setting": "IGF-1; plasma before treatment", "result": "59.0 ± 11.4", "unit": "ng/mL"}, {"measurement": "IGF-1 Changes from baseline", "setting": "IGF-1; plasma", "result": "-8.7 ± 8.3", "unit": "ng/mL"}, {"measurement": "% Factor IX post-treatment", "setting": "factor IX; plasma after 6-10 weeks", "result": "87.0 ± 12.2", "unit": "%"}, {"measurement": "% Factor IX baseline", "setting": "factor IX; plasma before treatment", "result": "86.6 ± 8.8", "unit": "%"}, {"measurement": "% Factor IX Changes from baseline", "setting": "factor IX; plasma", "result": "0.4 ± 10.2", "unit": "%"}]}]}
